Data on three compounds can be found in patent US5026731A, “Pharmaceutical composition and method of treating psychoses” (Schering Corporation, priority 1990, dated 1991).

One assay deals with T1, dopamine D-1 receptor (Bos taurus, UniProt Q95136).
T1 construct: Striata were dissected on ice and membranes prepared as described earlier; from tissue; host or cells: bovine striatum (membranes; brains from a local slaughter house)
The assay is described as follows: Competitive inhibition binding assay, 3H-Sch 23390 (D1-binding), bovine striatal membranes. To be noted: for Ki: 3H-Sch 23390 binding, bovine striatal membranes, 30 minute at 37° C., Tris-HCl pH 7.4. The protocol:
(§1) Compounds of represented by formula I may be synthesized as disclosed herein and diluted in 0.05M Tris buffer, pH 7.4, as required.
(§2) Bovine brains were obtained from a local slaughter house, on ice. […] Briefly, the striata were homogenized in 20 volumes of Tris-HCl (50 mM) buffer, pH 7.4, using a Polytron (Brinkmann) homogenizer, setting 7; membranes were washed by centrigugation (20,000×g) and resuspending in buffer, twice, and finally resuspended in assay buffer (Tris-HCl, 50 mM, pH 7.4, containing 120 mM NaCl, 5 mM KCl, […], 1 mM MgCl2). At least 3-4 different pools of membrane were processed and stored at -80° C.
(§3) For competition studies, several concentration of test drug or standard were included, ranging from 10^-4 to 10^-3. Tubes were incubated, 30 minute incubations at 37° C. were terminated by rapid filtration under vacuum, on to GF/B filters, presoaked in 0.3% polyethyleneamine (PEl), with three 5 ml washes.

A further assay concerns the target T2, D-2 receptor (Bos taurus, UniProt P20288).
T2 construct: Striata were dissected on ice and membranes prepared as described earlier; from tissue; host or cells: bovine striatum (membranes; brains from a local slaughter house)
The assay is described as follows: Competitive inhibition binding assay, 3H-spiperone (D2-binding), bovine striatal membranes. The protocol: as §1, §2, §3

The mark [1] stands for this setting: 3H-spiperone binding, bovine striatal membranes, 30 minute at 37° C., Tris-HCl pH 7.4.

As usually defined, the Ki is the equilibrium dissociation constant of an inhibitor or competing ligand from its target. High values mean lower affinity, low ones higher affinity.

T2 sequence (P20288 whole entry): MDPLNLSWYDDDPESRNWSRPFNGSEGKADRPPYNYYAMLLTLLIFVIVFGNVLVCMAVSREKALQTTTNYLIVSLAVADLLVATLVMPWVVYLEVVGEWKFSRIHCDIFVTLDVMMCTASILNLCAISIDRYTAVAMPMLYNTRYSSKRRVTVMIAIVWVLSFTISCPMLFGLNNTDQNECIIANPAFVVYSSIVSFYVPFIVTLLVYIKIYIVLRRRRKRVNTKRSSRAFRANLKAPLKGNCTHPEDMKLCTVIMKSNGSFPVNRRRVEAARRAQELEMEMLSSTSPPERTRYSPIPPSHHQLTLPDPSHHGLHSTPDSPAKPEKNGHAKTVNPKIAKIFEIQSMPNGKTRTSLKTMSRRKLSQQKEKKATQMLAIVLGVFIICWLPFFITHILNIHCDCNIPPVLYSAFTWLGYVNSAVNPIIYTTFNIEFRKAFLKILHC
T1 sequence (Q95136 whole entry): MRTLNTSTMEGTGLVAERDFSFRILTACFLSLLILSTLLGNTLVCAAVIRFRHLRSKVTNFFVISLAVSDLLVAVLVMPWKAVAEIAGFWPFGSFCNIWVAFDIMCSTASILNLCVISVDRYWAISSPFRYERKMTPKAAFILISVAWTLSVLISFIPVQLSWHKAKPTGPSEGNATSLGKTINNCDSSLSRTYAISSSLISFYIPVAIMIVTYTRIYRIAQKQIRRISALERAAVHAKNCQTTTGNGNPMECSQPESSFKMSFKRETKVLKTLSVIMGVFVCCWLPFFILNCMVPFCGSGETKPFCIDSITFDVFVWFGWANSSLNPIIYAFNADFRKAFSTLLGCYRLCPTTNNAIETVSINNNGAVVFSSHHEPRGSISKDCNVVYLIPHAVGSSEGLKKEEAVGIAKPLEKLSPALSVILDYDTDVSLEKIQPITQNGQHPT

On to `CC(=O)Nc1cc(O)ccc1O` [2,5-dihydroxyacetanilide], for which the figures for the Ki on dopamine D-1 receptor and at D-2 receptor (setting [1]) were 1200 to 2000 nM and 200000 nM, respectively. Also, on dopamine D-1 receptor (from the Ki data of Table 1, D1 vs D2), the “D1 receptor selectivity (D1 versus D2)” value is recorded as “more than 100 fold”.
For `CN1CCc2cc(Cl)c(O)cc2[C@@H](c2ccccc2)C1` [Sch 23390, (R)-(+)-8-chloro-2,3,4,5-tetrahydro-3-methyl-5-phenyl-1H-3-benzazepin-7-olhemimaleate], the inhibitory constant (Ki) at dopamine D-1 receptor came to 0.8 nM; at D-2 receptor (setting [1]), 800 nM.
On to (+) butaclamol, for which, at D-2 receptor (pH 7.4), the Ki was determined as 1 nM.
